Test results from US20090197867A1, “ENANTIOMERICALLY ENRICHED IMIDAZOAZEPINONE COMPOUNDS” (priority 2007, published 2009).

Tests used:
CIA mouse = test: Suppression of arthritis development in CIA (active immunization); assay type: in vivo; settings: DBA1/J mice, oral dosing once daily, read-out: Arthritis Model Approx ED50, Active Immunization (CIA mouse)
Description: Suppression of arthritis development in CIA. DBA1/J mice were immunized with bCII/CFA at day 0 then boosted at day 21 with bCII/IFA. Arthritis development was monitored over the course of study. The arthritis score is as follows: 0=normal paw, score of 1=1-2 digit inflamed paws; score of 2=3 digits or 1-2 digit+wrist or ankle inflamed, score of 3=hand+more than 2 digits inflamed; and score of 4=multiple digits (3-4)+important wrist or ankle inflammation.
(A) Partial therapeutic evaluation of compounds. Active compound was given by oral dosing once daily at the dose indicated from day 20 after induction of antibodies to collagen II but before disease development. (B) Full therapeutic evaluation of compound. Active compound was given after disease was developed (from day 7 after the second immunization). (C) X-ray analysis of mouse paws from full therapeutic CIA study. X-ray score is the index of measurement of combination of osteopenia, bone erosion and new bone formation. (D) Representative X-ray radiographs.

CAIA mouse = test: Suppression of arthritis development in CAIA (passive immunization); assay type: in vivo; settings: BALB/c mice, once daily PO day 0 to day 7
Method: Suppression of arthritis development in CAIA. BALB/c mice were injected i.v. with 1 mg of anti-type II collagen antibody at day 0, and 3 days later 25 μg of LPS was injected i.p. with active compound and methotrexate (MTX) was given once daily PO from day 0 to day 7. Arthritis score and body weight was monitored over the course of study.

SMILES	ED50 (CIA mouse) [mg/kg]	ED50 (CAIA mouse; Mus musculus, read-out: Arthritis Model Approx ED50, Passive Immunization (CAIA mouse)) [mg/kg]	activity in the CAIA model (arthritis score) (CAIA mouse)
CCN1C(=O)N2Cc3cc(OC)cc(OC)c3[C@@H](C)C=C2C12CCN(Cc1cc(C)cc(C)c1)CC2 [ER-819762-01]	~3	30 to 60	
CCN1C(=O)N2Cc3cc(OC)cc(OC)c3[C@@H](C)C=C2C12CCN(Cc1cccn1C)CC2 [ER-819924-01]	3 to 10		
CCN1C(=O)N2Cc3cc(OC)cc(OC)c3[C@@H](C)C=C2C12CCN(Cc1cc(C)nn1C)CC2 [ER-819973-01]	3 to 10		
CN(Cc1cnc2nc(N)nc(N)c2n1)c1ccc(C(=O)N[C@@H](CCC(=O)O)C(=O)O)cc1 [methotrexate, reference compound]			not particularly active
